Source: patent EP1161417B1, “METHODS AND COMPOSITIONS FOR TREATING LEUKEMIA” (HSC Research and Development Limited Partnership, priority 1999, dated 2000)

How the values were obtained:
Jak2 kinase = target: T1, Jak2 kinase (Homo sapiens, UniProt O60674); assay: in vitro kinase assay on Jak2 immunoprecipitated from G2 cell lysate; format: biochemical; conditions: scanning autoradiographs of the kinase assays
T1 construct: Jak2 kinase was immunoprecipitated from a 1% Triton-X100 lysate of 10x10^6 G2 cells; endogenous in cells; host or cells: G2 pre-B leukemia cell line
Procedure: Compounds chosen on the basis of their ability to inhibit the growth (colony formation) of the pre-B leukemia cell line G2 were tested for inhibition of Jak2 kinase.
Jak2 kinase was immunoprecipitated from a 1% Triton-X100 lysate of 10x10^6 G2 cells. An in vitro kinase assay was performed on the immunoprecipitated Jak2 in the presence or absence of varying concentrations of the compounds AG 1977, AG 1978, AG 2009 and AG 2010.
Stock solutions of 100mM tyrphostin were made in 100% DMSO and further dilutions made in 10% DMSO. Control kinase assays carried out in the presence of DMSO concentrations of 5-30% alone were unaffected by its presence.
Initial experiments were done with tyrphostin concentrations of 0.1, 1.0 and 10µM. These concentrations had no affect on the kinase activity of Jak2. […]

G2 ALL cells = assay: clonogenic assay, inhibition of colony formation of ALL cell line G2; format: cell-based, human
Procedure: Inhibition of colony formation was studied by methods described previously (Kamel-Reid et al., (1992), Leukemia, v. 6, pp. 8-17; Meydan et al., (1996), Nature, v. 379, pp. 645-648).
ALL cell lines A1 (at 8x10^5 cells/ml), C1 (at 4x10^4 cells/ml) and G2 (at 1.15x10^6 cells/ml) were plated in 1 ml volumes, in the absence of exogenous growth factors, into 35 mm petri dishes (Nunc, Gibco) containing alpha MEM (Gibco) plus 10% FCS (Cansera Rexdale, Ont.) in 0.9% (vol/vol) methylcellulose (Fluka, Switzerland). Cultures were set up at 37°C with 5% CO2 in a humidified atmosphere and 10 uM of a selected tyrphostin was added. Colonies consisting of more than 20 cells were counted at 12 days (A1), 5 days (C1) and 14 days (G2) using an inverted microscope. Similar results were obtained with A1 and C1.
Various concentrations of tyrphostins were tested for inhibition of ALL cells in the clonogenic assay described in Example 2. Compounds AG 1977. 1978, 2007, 2008, 2009 and 2010 were tested against ALL cell lines A1, C1 and G2 in doses ranging from nanomolar to micromolar values.

normal bone marrow cells = assay: modified CFU-GEMM clonogenic assay on normal bone marrow cells; format: cell-based, human; conditions: 40µM
Procedure: Compounds showing inhibition of ALL colony formation were examined for their effect on normal bone marrow cells using a modified CFU-GEMM clonogenic assay.
The assay was performed according to Fauser and Messner (1978), Blood, v. 52, pp. 1243-8, and Messner and Fausser (1980), Blut, v. 41, pp. 327-333, with some variations. In brief, heparinized bone marrow cells were layered over Percoll (Pharmacia Fine Chemical. Piscataway N.J.) at a density of 1.077 gm/ml and centrifuged at 400 g at 4°C for 10 min. to remove neutrophils and RBCs. The fractionated bone marrow cells at 2x10^5 cells/ml were cultured in IMDM (OCI, Toronto) containing 0.9% (vol/vol) methylcellulose supplemented with 30% FCS (Cansera Rexdale, Ont.) or normal human plasma, a cocktail of cytokines consisting of G-CSF (10 ng/ml. Amgen), IL-3 (40 U/ml, Immunex), MGF (50 ng/ml, Immunex), Erythropoietin (2u/ml, Epprex) or TPO (10 ng/ml, Amgen) and 5x10^-5 2-mercaptoethanol. The culture mixture was plated in 1 ml volumes into 35 mm petri dishes and incubated at 37°C with 5% CO2 in a humidified atmosphere with concentrations of tyrphostin up to 40 µm.

T1 sequence (O60674 whole entry): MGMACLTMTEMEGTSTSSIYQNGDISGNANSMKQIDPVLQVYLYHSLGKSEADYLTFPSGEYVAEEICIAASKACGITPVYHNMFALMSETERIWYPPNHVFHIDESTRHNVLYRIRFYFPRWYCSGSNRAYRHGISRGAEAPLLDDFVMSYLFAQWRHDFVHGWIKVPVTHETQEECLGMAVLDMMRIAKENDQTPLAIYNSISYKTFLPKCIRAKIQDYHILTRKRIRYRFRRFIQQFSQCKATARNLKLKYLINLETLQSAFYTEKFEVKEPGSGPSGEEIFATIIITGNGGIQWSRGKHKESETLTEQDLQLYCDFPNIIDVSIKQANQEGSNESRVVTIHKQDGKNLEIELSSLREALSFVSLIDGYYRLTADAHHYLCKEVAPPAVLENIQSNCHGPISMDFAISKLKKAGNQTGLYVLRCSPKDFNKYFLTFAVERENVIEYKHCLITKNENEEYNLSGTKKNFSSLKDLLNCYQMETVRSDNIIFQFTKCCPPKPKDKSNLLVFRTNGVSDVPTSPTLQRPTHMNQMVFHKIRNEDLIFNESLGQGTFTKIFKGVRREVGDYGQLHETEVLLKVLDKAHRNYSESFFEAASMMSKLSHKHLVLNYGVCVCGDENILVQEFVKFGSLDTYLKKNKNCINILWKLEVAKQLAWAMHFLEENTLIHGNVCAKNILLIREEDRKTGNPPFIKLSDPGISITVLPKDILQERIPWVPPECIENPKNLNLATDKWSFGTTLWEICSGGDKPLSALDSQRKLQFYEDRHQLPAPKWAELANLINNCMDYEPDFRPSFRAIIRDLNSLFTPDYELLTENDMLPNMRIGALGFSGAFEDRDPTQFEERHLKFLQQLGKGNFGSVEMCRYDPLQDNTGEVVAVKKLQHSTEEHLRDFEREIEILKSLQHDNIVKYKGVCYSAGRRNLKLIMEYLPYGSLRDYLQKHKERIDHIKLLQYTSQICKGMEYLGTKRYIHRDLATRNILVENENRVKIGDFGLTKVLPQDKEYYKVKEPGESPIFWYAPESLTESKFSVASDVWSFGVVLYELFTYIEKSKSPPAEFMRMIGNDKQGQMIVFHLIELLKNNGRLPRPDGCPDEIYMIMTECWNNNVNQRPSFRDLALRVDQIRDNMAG

SMILES | %inhibition of kinase activity (Jak2 kinase; 5µM tyrphostin) [%] | %inhibition of kinase activity (Jak2 kinase; 25µM tyrphostin) [%] | %inhibition of kinase activity (Jak2 kinase; 50µM tyrphostin) [%] | inhibition at 0.016 µM (G2 ALL cells; Homo sapiens, dose of 16nM, G2 cells) [%] | clonogenic inhibition (G2 ALL cells; against G2 cells, dose responsive (Fig. 13), compared with AG 1977, 1978, 2007, 2008, 2010) | differential therapeutic index (G2 ALL cells; survival curve of normal BM and G2 colonies (Fig. 14)) | inhibition of normal bone marrow colonies (normal bone marrow cells)
N#C/C(=C\c1cc(O)c(O)c(CSCc2ccccc2)c1)C(=O)NCc1ccccc1 [AG 1977, N-benzyl-2-cyano-3-(3',4'-dihydroxy-5'-methylenethiobenzylphenyl) acrylamide] | 23 | 14 | 15 |  |  |  | 
N#C/C(=C\c1cc(O)c(O)c(CSc2ccccc2)c1)C(=O)NCc1ccccc1 [AG 1978, N-benzyl-2-cyano-3-(3',4-dihydroxy-5'-methylenethiophenylphenyl) acrylamide] | 10 | 13 | 46 |  |  |  | 
N#C/C(=C\c1cc(O)c(O)c(CSCCc2ccccc2)c1)C(=O)NCc1ccccc1 [AG 2009, N-benzyl-2-cyano-3-(3',4'-dihydroxy-5'-(methylenethioethylphenyl)phenyl) acrylamide] | 0 | 0 | 8 | > 50 | most potent clonogenic inhibition | greater than 2 logs | 
N#C/C(=C\c1cc(O)c(O)c(CSCCCc2ccccc2)c1)C(=O)NCc1ccccc1 [AG 2010, N-benzyl-2-cyano-3-(3',4'-dihydroxy-5'-(methylenethiopropylphenyl)phenyl) acrylamide] | 5 | 5 | 39 |  |  |  | significant inhibition
